Data from patent US20240074968A1, “ORAL PHARMACEUTICAL COMPOSITION AND METHOD FOR PRODUCING PARTICULATE FORMULATION COMPRISING COMPOSITION” (Sunsho Pharmaceutical Co., Ltd., priority 2016, published 2024).

Assay: Solubility in water at 20° C.
Assay type: physicochemical
Source text: The above hydrophobic liquid (B) is a hydrophobic liquid that can dissolve or disperse well the above active ingredient (A) and is not a surfactant. In this case, the “hydrophobicity” of this hydrophobic liquid (B) should disperse as liquid particles containing the active ingredient (A), without dissolving into the water-based composition containing the water-soluble polymer substance (C) and the excipient (D) described below. […] When this “hydrophobicity” is insufficient, it becomes difficult to remain dispersed in the composition while containing the above active ingredient (A), and all or much of the active ingredient (A) becomes contained in the composition as crystals, which makes it impossible to achieve the purpose of the present invention.

solubility in water at 20° C.: exceeding 10 mass %
SMILES: CC(O)CO (stereo not shown) [propylene glycol]
